Results as given in PubChem BioAssay (NCI).
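Assay format: 96-well plates, 48-hour exposure. GI50 = concentration required for 50% inhibition of growth. TGI marks complete inhibition of growth.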

Tests used:
Assay in all cases: NCI tumour cell line growth inhibition, 48 h
[1] = system: UACC-62 melanoma
[2] = system: SF-268 CNS
[3] = system: OVCAR-4 ovarian
[4] = system: HS 578T breast
[5] = system: IGROV1 ovarian
[6] = system: OVCAR-8 ovarian
[7] = system: MOLT-4 leukemia
[8] = system: SF-539 CNS
[9] = system: HOP-62 NSCLC
[10] = system: M14 melanoma
[11] = system: HOP-92 NSCLC
[12] = system: HL-60(TB) leukemia
[13] = system: NCI/ADR-RES ovarian
[14] = system: DU-145 prostate
[15] = system: SK-MEL-2 melanoma
[16] = system: NCI-H460 lung
[17] = system: TK-10 renal
[18] = system: SK-OV-3 ovarian
[19] = system: HCT-15 colon
[20] = system: PC-3 prostate
[21] = system: CAKI-1 renal
[22] = system: UACC-257 melanoma
[23] = system: U251 CNS
[24] = system: SF-295 CNS
[25] = system: COLO 205 colon
[26] = system: SNB-75 CNS
[27] = system: SK-MEL-5 melanoma
[28] = system: SNB-19 CNS
[29] = system: K-562 leukemia
[30] = system: NCI-H226 lung
[31] = system: SW-620 colon
[32] = system: A498 renal
[33] = system: RPMI-8226 leukemia
[34] = system: MCF7 breast
[35] = system: A549 NSCLC
[36] = system: OVCAR-3 ovarian
[37] = system: RXF 393 renal
[38] = system: NCI-H522 lung
[39] = system: MDA-MB-231 breast
[40] = system: OVCAR-5 ovarian
[41] = system: MALME-3M melanoma
[42] = system: UO-31 renal
[43] = system: SR leukemia
[44] = system: T-47D breast
[45] = system: KM12 colon
[46] = system: MDA-MB-435
[47] = system: ACHN renal
[48] = system: NCI-H23 lung
[49] = system: CCRF-CEM leukemia
[50] = system: HT29 colon
[51] = system: SK-MEL-28 melanoma
[52] = system: BT-549 breast
[53] = system: HCC-2998 colon
[54] = system: SN12C renal
[55] = system: 786-0 renal

In the case of `FC(F)(F)c1ccc2nc(-c3nc(-c4ccccc4)n4ccccc34)[nH]c2c1`, the GI50 [1] is reported as 3.19 µM, the TGI [1] is reported as 17.9 µM and the GI50 [2] is reported as 5.63 µM. The TGI [2] was over 100 µM, the GI50 [3] was 1810 nM and the TGI [3] was 3.71 µM. It also gave a GI50 [4] of 3.65 µM, a TGI [4] of 33.6 µM and a GI50 [5] of 4.03 µM. For the same compound, the TGI [5] was 20.5 µM, the GI50 [6] was 2700 nM and the TGI [6] was 7.68 µM. It also gave a GI50 [7] of 28.3 µM, a TGI [7] of over 100 µM and a GI50 [8] of 1690 nM. It also gave a TGI [8] of 3.38 µM, a GI50 [9] of 2460 nM and a TGI [9] of 9.26 µM. The GI50 [10] was 17.7 µM, the TGI [10] was over 100 µM and the GI50 [11] was 3.66 µM. For the same compound, the TGI [11] was 17.4 µM, the GI50 [12] was 27.8 µM and the TGI [12] was over 100 µM. For the same compound, the GI50 [13] was 3.71 µM, the TGI [13] was 38.5 µM and the GI50 [14] was 7.5 µM. The TGI [14] was 30.3 µM, the GI50 [15] was 14.9 µM and the TGI [15] was 40.3 µM. For the same compound, the GI50 [16] was 2930 nM, the TGI [16] was 11.2 µM and the GI50 [17] was 2850 nM. For the same compound, the TGI [17] was 5.32 µM, the GI50 [18] was 1860 nM and the TGI [18] was 3.53 µM. It also gave a GI50 [19] of 3.5 µM, a TGI [19] of 22 µM and a GI50 [20] of 4.11 µM. It also gave a TGI [20] of over 100 µM, a GI50 [21] of 5.07 µM and a TGI [21] of 27.1 µM. For the same compound, the GI50 [22] was 13.1 µM, the TGI [22] was 46.2 µM and the GI50 [23] was 1980 nM. It also gave a TGI [23] of 4.03 µM, a GI50 [24] of 3.85 µM and a TGI [24] of 15.1 µM. The GI50 [25] was 4.88 µM, the TGI [25] was over 100 µM and the GI50 [26] was 1680 nM. It also gave a TGI [26] of 3.94 µM, a GI50 [27] of 1900 nM and a TGI [27] of 5.55 µM. For the same compound, the GI50 [28] was 6.44 µM, the TGI [28] was 20.8 µM and the GI50 [29] was 11 µM. For the same compound, the TGI [29] was over 100 µM, the GI50 [30] was 10.9 µM and the TGI [30] was 32.9 µM. For the same compound, the GI50 [31] was 3.17 µM, the TGI [31] was 23.6 µM and the GI50 [32] was 1690 nM. The TGI [32] was 5.85 µM, the GI50 [33] was 3.84 µM and the TGI [33] was 36.9 µM. The GI50 [34] was 2400 nM, the TGI [34] was 21 µM and the GI50 [35] was 3.12 µM. For the same compound, the TGI [35] was 11.1 µM, the GI50 [36] was 4.08 µM and the TGI [36] was 16.3 µM. For the same compound, the GI50 [37] was 2640 nM, the TGI [37] was 6.98 µM and the GI50 [38] was 2990 nM. It also gave a TGI [38] of 9.88 µM, a GI50 [39] of 2040 nM and a TGI [39] of 5.39 µM. The GI50 [40] was 6.77 µM, the TGI [40] was 47.2 µM and the GI50 [41] was 2710 nM. For the same compound, the TGI [41] was 9.02 µM, the GI50 [42] was 4.37 µM and the TGI [42] was 18.6 µM. The GI50 [43] was 3.65 µM, the TGI [43] was over 100 µM and the GI50 [44] was 1710 nM. It also gave a TGI [44] of 16.9 µM, a GI50 [45] of 5.11 µM and a TGI [45] of over 100 µM. For the same compound, the GI50 [46] was 5.47 µM, the TGI [46] was 31.6 µM and the GI50 [47] was 2230 nM. It also gave a TGI [47] of 6.12 µM, a GI50 [48] of 3.21 µM and a TGI [48] of 14.7 µM. For the same compound, the GI50 [49] was 5.64 µM, the TGI [49] was over 100 µM and the GI50 [50] was 3.47 µM. It also gave a TGI [50] of 11.1 µM, a GI50 [51] of 9.22 µM and a TGI [51] of 31.6 µM. For the same compound, the GI50 [52] was 4.23 µM, the TGI [52] was 63.4 µM and the GI50 [53] was 5.98 µM. It also gave a TGI [53] of 22.4 µM, a GI50 [54] of 2590 nM and a TGI [54] of 8.56 µM. It also gave a GI50 [55] of 1920 nM and a TGI [55] of 3.56 µM.
